Reference: US20210107865A1, “ALIPHATIC AMINE AND ITS PREPARATION METHOD AND USE” (COVESTRO D[…], priority 2017, published 2021)

Assay: Solubility of lysine in amine compounds and solvents
Type: physicochemical
Details: at 100° C. under normal pressure

**Q.** Which “solubility of lysine in 1,5-pentanediamine” value (in 1,5-pentanediamine) does the source give for NCCCC[C@H](N)C(=O)O [lysine, L-lysine] here?
**A.** solubility of lysine in 1,5-pentanediamine is 33 g/100 g,

**Q.** And the “solubility of lysine in 1,6-hexanediamine” value (in 1,6-hexanediamine)?
**A.** is 4.6 g/100 g, measured at 100 °C under normal pressure.

**Q.** What about the “solubility of lysine in cyclohexanol” value (in cyclohexanol) of the same compound?
**A.** Ltd. The solubility of lysine in cyclohexanol is 0.01 g/100 g/100 g

**Q.** And the “solubility of lysine in ethylene glycol” value (in ethylene glycol)?
**A.** The solubility of lysine in ethylene glycol is 20 g/100 g,

**Q.** And the “solubility of lysine in isophoronediamine” value (in isophoronediamine)?
**A.** is 5.2 g/100 g, measured at 100 °C under normal pressure.
